# The supplement of paper PMC10307832
# Columns and labels:
# Assay in all cases: relative viability (nuclei count vs DMSO), 5 days (fraction); higher = more cells survive
# [1] = compound: O=C(CCCCCCNC(=O)c1cnc(N(c2ccccc2)c2ccccc2)nc1)NO [Ricolinostat] + CC(=O)Nc1cccc(-n2c(=O)n(C3CC3)c(=O)c3c(Nc4ccc(I)cc4F)n(C)c(=O)c(C)c32)c1 [Trametinib] (partner 0.02 µM)
# Summary of the method: (§1)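 Lung cancer cell lines were pin-tool dosed in 1536-well plates on the day after seeding, with either a lone drug or a fixed anchor-drug dose plus five library-drug doses (not always all listed) in √10 steps. Nuclei were counted on 4× images after 5 days. Relative viability is the ratio of treated-well to vehicle-well nuclei counts, with each value a median of duplicate plates.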
# [2] = compound: C1=CC=C(C(=C1)C2=CC=C(C=C2)C3=CSC4=C3C(=C(C(=O)N4)C#N)O)O + CCNC(=O)c1noc(-c2cc(C(C)C)c(O)cc2O)c1-c1ccc(CN2CCOCC2)cc1 [Luminespib] (partner 0.01 µM)
# Summary of the method: as §1
# [3] = compound: C1=CC=C(C(=C1)C2=CC=C(C=C2)C3=CSC4=C3C(=C(C(=O)N4)C#N)O)O + CC(C)C[C@H](NC(=O)[C@H](Cc1ccccc1)NC(=O)c1cnccn1)B(O)O [Bortezomib] (partner 0.002 µM)
# Summary of the method: as §1
# [4] = compound: C1=CC=C(C(=C1)C2=CC=C(C=C2)C3=CSC4=C3C(=C(C(=O)N4)C#N)O)O + CS(=O)(=O)N1CCN(Cc2cc3nc(-c4cccc5[nH]ncc45)nc(N4CCOCC4)c3s2)CC1 [Pictilisib] (partner 1 µM)
# Summary of the method: as §1
Cell Line,relative viability ([1]; first compound 0.08 µM),relative viability ([1]; first compound 0.253 µM),relative viability ([1]; first compound 0.8 µM),relative viability ([1]; first compound 2.53 µM),relative viability ([2]; first compound 0.08 µM),relative viability ([2]; first compound 0.253 µM),relative viability ([2]; first compound 0.8 µM),relative viability ([2]; first compound 2.53 µM),relative viability ([2]; first compound 8 µM),relative viability ([3]; first compound 0.253 µM),relative viability ([3]; first compound 0.8 µM),relative viability ([3]; first compound 2.53 µM),relative viability ([3]; first compound 8 µM),relative viability ([4]; first compound 0.08 µM),relative viability ([4]; first compound 0.253 µM),relative viability ([4]; first compound 0.8 µM),relative viability ([4]; first compound 2.53 µM),relative viability ([4]; first compound 8 µM),relative viability ([3]; first compound 0.08 µM)
NCI-H2342,0.636,0.807,0.831,0.78,0.742,0.816,0.788,0.718,0.68,,,,,,,,,,
SK-LU-1,0.476,0.52,0.475,0.396,0.195,0.217,0.217,0.175,0.218,0.83,1.12,1.36,1.16,0.426,0.532,0.57,0.61,0.508,
NCI-H2023,0.51,0.637,0.558,0.536,0.59,0.752,0.767,0.956,0.643,1.03,0.637,0.887,0.908,0.185,0.215,0.263,0.204,0.22,1.16
NCI-H1299,,,,,,,,,,1.04,0.995,1,0.975,1.04,0.858,0.826,0.771,0.594,1.07
LOU-NH91,,0.783,0.763,0.864,0.439,0.41,0.304,0.364,0.33,0.496,0.449,0.515,0.443,0.482,0.538,0.51,0.515,0.512,0.428
LCLC-103H,0.632,0.599,0.685,0.77,0.87,0.98,1.06,0.929,1.06,1.13,1.05,1.13,1.15,0.544,0.664,0.541,0.554,0.576,0.99
SW 1573,0.468,0.55,0.593,0.596,0.192,0.105,0.147,0.219,0.275,1.02,1.12,1.04,0.88,0.475,0.571,0.54,0.458,0.37,0.823
NCI-H1755,0.694,0.678,0.814,0.779,0.401,0.302,0.336,0.349,0.447,1.04,0.872,0.978,0.814,0.279,0.59,0.381,0.396,0.383,0.954
COR-L 105,0.376,0.471,0.547,0.543,0.881,0.821,0.722,0.625,0.752,0.78,0.819,0.779,0.58,0.387,0.525,0.428,0.417,0.433,0.767
NCI-H1793,0.327,0.389,0.435,0.444,0.19,0.21,0.42,0.225,0.166,,,,,0.379,0.352,0.269,0.312,0.242,
EMC-BAC-2,0.809,0.895,0.819,0.74,0.953,1.25,1.25,1.26,1.18,1.25,1.15,1.05,0.957,0.526,0.516,0.562,0.544,0.477,0.995
H3255,0.571,0.644,0.677,0.76,0.968,1.02,0.713,0.852,0.895,0.802,0.646,0.789,0.686,0.483,0.514,0.447,0.536,0.467,0.79
PC-14,0.733,0.789,0.666,0.417,,0.185,0.105,0.162,0.142,0.81,0.812,1.07,0.88,0.604,0.674,0.658,0.797,0.52,0.801
NCI-H661,0.498,0.569,0.592,0.568,0.808,0.985,0.964,0.9,0.898,0.71,0.697,0.678,0.718,0.331,0.425,0.333,0.39,0.349,1.05
HARA,0.704,0.804,0.529,0.644,0.375,0.707,0.553,0.592,0.682,,1.25,1.03,1.13,,0.668,0.449,0.392,0.442,
COR-L23,0.485,0.582,0.625,0.49,0.524,0.745,0.714,0.773,0.52,0.703,1.11,1.09,0.496,0.757,0.581,0.813,0.728,0.575,0.864
SK-MES-1,0.548,0.537,0.656,0.734,0.766,0.822,0.763,0.622,0.633,,,,,0.33,0.368,0.354,0.284,0.307,
NCI-H1395,,0.957,1.08,1.2,0.933,0.683,0.658,0.641,0.5,,,,,,0.533,0.631,0.545,0.643,
NCI-H2170,0.921,0.879,0.985,0.973,0.594,1.11,0.992,0.752,0.609,,,,,0.337,0.304,0.273,0.3,0.358,

Cell Line,relative viability ([1]; first compound 0.08 µM),relative viability ([1]; first compound 0.253 µM),relative viability ([1]; first compound 0.8 µM),relative viability ([1]; first compound 2.53 µM),relative viability ([2]; first compound 0.08 µM),relative viability ([2]; first compound 0.253 µM),relative viability ([2]; first compound 0.8 µM),relative viability ([2]; first compound 2.53 µM),relative viability ([2]; first compound 8 µM),relative viability ([3]; first compound 0.253 µM),relative viability ([3]; first compound 0.8 µM),relative viability ([3]; first compound 2.53 µM),relative viability ([3]; first compound 8 µM),relative viability ([4]; first compound 0.08 µM),relative viability ([4]; first compound 0.253 µM),relative viability ([4]; first compound 0.8 µM),relative viability ([4]; first compound 2.53 µM),relative viability ([4]; first compound 8 µM),relative viability ([3]; first compound 0.08 µM)
NCI-H647,0.372,0.464,0.51,0.564,0.183,0.0923,0.19,0.245,0.209,1.16,1.09,0.919,0.649,0.226,0.449,0.515,0.377,0.389,1.01
CAL-12T,0.266,0.32,0.456,0.395,0.296,0.565,0.362,0.585,0.264,0.898,0.911,0.936,0.804,,0.446,0.359,0.337,0.367,
HCC-366,0.372,0.32,0.314,0.342,,,,,,1.14,1.34,0.682,0.642,0.196,0.154,0.0996,0.174,0.164,1.04
NCI-H1944,0.46,0.469,0.442,0.407,0.839,0.736,0.752,0.777,0.724,,,,,0.349,0.39,0.317,0.343,0.357,
NCI-H1703,,,,,,,,,,0.395,0.289,0.301,0.38,0.236,0.292,0.25,0.259,0.24,0.28
LK-2,0.756,1.04,0.817,0.718,,0.192,0.193,0.184,0.191,,,,,,,0.507,0.656,0.514,
SW 900,0.659,0.905,0.954,0.609,0.161,0.174,0.186,0.135,0.192,,,,,,,,,,
NCI-H358,0.125,0.135,0.173,0.176,0.304,0.331,0.293,0.603,0.221,,,,,0.415,0.344,0.329,0.342,0.414,
NCI-H1563,,,,,0.525,0.613,0.551,0.587,0.517,0.953,0.909,0.785,0.759,0.629,0.655,0.689,0.703,0.637,0.543
HCC-78,,0.782,0.768,0.601,,,,,,0.771,0.536,0.417,0.428,0.169,0.286,0.205,0.192,0.196,0.529
Calu-6,,,,,,,,,,1.14,1.26,1.06,0.971,0.959,0.967,1.05,0.988,0.812,1.18
NCI-H1623,,,,,0.454,0.591,0.817,0.434,0.419,,,,,,,,,,
EBC-1,,,,,,,,,,0.435,0.489,0.598,0.509,0.353,0.429,0.346,0.343,0.368,0.629
NCI-H522,0.742,0.711,0.769,0.832,,1.28,1.2,1.27,0.937,,,,,,,,,,
NCI-H1648,,0.512,0.489,0.519,,,,,,,,,,,,,,,
A549,,,,,,,,,,,,,,0.322,0.552,0.539,0.516,0.422,
IA-LM,,,,,,,,,,1.13,0.879,1.01,0.58,0.273,0.452,0.287,0.369,0.238,0.672
ABC-1,,,,,0.509,0.768,0.78,0.481,0.513,0.326,0.326,0.364,0.324,0.678,0.881,0.949,0.59,0.548,0.281
